Our source for the pest or weed control values is US9204653B2, “5-fluoro pyrimidine derivatives” (DOW AGROSCIENCES LLC, priority 2008, dated 2015).

Where two headings read alike, the source gives them in different places.

In this test the test system is Mycosphaerella graminicola; Anamorph: Septoria tritici; Bayer Code SEPTTR. As to the kind of experiment: Leaf blotch of wheat, foliar fungicide treatment, one day protectant (1DP) or three day curative (3DC). It counts as in vivo, Septoria tritici on wheat plants (variety Yuma). As to conditions: Zymoseptoria tritici.
Setting [1] is: 24 h, one day protectant (1DP), 25 ppm (first 1DP column), percent control rating, read-out: SETTTR 1DP 25 ppm.
Setting [2] is: 24 h, one day protectant (1DP), 25 ppm as printed (second 1DP column), percent control rating, read-out: SETTTR 1DP 25 ppm.
[3] abbreviates: 72 h, three day curative (3DC), 25 ppm, percent control rating, read-out: SEPTTR 3DC 25 ppm.
[4] abbreviates: 72 h, three day curative (3DC), percent control rating, read-out: SEPTTR 3DC 100 ppm.
The mark [5] stands for this setting: 24 h, one day protectant, 25 ppm, rating of percent disease control, read-out: SETTTR 1DP 25 ppm.
The mark [6] stands for this setting: 24 h, one day protectant, rating of percent disease control, read-out: SEPTTR 1DP 100 ppm.
The mark [7] stands for this setting: 72 h, three day curative, 25 ppm, rating of percent disease control, read-out: SEPTTR 3DC 25 ppm.
Setting [8] is: 72 h, three day curative, rating of percent disease control, read-out: SEPTTR 3DC 100 ppm.
Where [9] appears, read: 24 h, one day protectant (1DP), 25 ppm, rating of percent disease control, read-out: SETTTR 1DP 25 ppm.
Where [10] appears, read: 24 h, one day protectant (1DP), rating of percent disease control, read-out: SEPTTR 1DP 100 ppm.
The mark [11] stands for this setting: 72 h, three day curative (3DC), 25 ppm, rating of percent disease control, read-out: SEPTTR 3DC 25 ppm.
Setting [12] is: 72 h, three day curative (3DC), rating of percent disease control, read-out: SEPTTR 3DC 100 ppm.
Setting [13] is: 72 h, three day curative (3DC), 25 ppm, percent disease control rating, read-out: SEPTTR 3DC 25 ppm.
Setting [14] is: 72 h, three day curative (3DC), percent disease control rating, read-out: SEPTTR 3DC 100 ppm.

Take `CC(=O)OCOc1ncc(F)c(NC=O)n1` [Compound 1125]: the pest or weed control at 25 ppm reads like this: under setting [1], 76 to 100%; under setting [2], 76 to 100%; under setting [3], 76 to 100%. Further, under setting [4], the pest or weed control at 100 ppm is 76 to 100%.

In the case of `CC(C)OCNc1nc(OCc2ccc(F)cc2)ncc1F` [Compound 614], the pest or weed control at 25 ppm is, setting by setting: under setting [5], 76 to 100%; under setting [7], 76 to 100%. Moreover, the pest or weed control at 100 ppm reads like this: under setting [6], 76 to 100%; under setting [8], 76 to 100%.

As for `COc1ccc(OC)c(COc2ncc(F)c(N)n2)c1` [Compound 351], the pest or weed control at 25 ppm lay within 76 to 100% under setting [9] and 76 to 100% under setting [11]. For the same compound, the pest or weed control at 100 ppm is, setting by setting: under setting [10], 76 to 100%; under setting [12], 76 to 100%.

For the compound `Oc1ncc(F)c(NNc2ccccc2Cl)n1` [Compound 1098], the pest or weed control at 25 ppm reads like this: under setting [1], 0 to 25%; under setting [2], 0 to 25%; under setting [3], 0 to 25%. In addition, the pest or weed control at 100 ppm under setting [4] was 0 to 25%.

On to `CC(Oc1ncc(F)c(/N=C/N2CCOCC2)n1)c1ccc(F)cc1` (stereo not shown) [Compound 338], for which the pest or weed control at 25 ppm by setting is: under setting [9], 76 to 100%; under setting [11], 76 to 100%. Also, the pest or weed control at 100 ppm runs as follows: under setting [10], 76 to 100%; under setting [12], 76 to 100%.

Take `CCOC(=O)Nc1nc(OCc2ccc(C)cc2)ncc1F` [Compound 490]: the pest or weed control at 25 ppm runs as follows: under setting [9], 76 to 100%; under setting [11], 76 to 100%. Also, the pest or weed control at 100 ppm runs as follows: under setting [10], 76 to 100%; under setting [12], 76 to 100%.

Turning to `CC(=O)OCNc1nc(OCc2ccc(F)cc2)ncc1F` [Compound 259], the pest or weed control at 25 ppm runs as follows: under setting [9], 51 to 75%; under setting [11], 76 to 100%. Also, the pest or weed control at 100 ppm under setting [10] fell in the range of 76 to 100% and the pest or weed control at 100 ppm under setting [12] was 76 to 100%.

On to `O=S(=O)(Cc1ccccc1)Nc1nc(O)ncc1F` [Compound 1132], for which the pest or weed control at 25 ppm (24 h, one day protectant (1DP), 25 ppm (first 1DP column), percent disease control rating, read-out: SETTTR 1DP 25 ppm) lay in the range of 51 to 75%; the pest or weed control at 25 ppm (24 h, one day protectant (1DP), 25 ppm as printed (second 1DP column), percent disease control rating, read-out: SETTTR 1DP 25 ppm) fell in the range of 51 to 75%; the pest or weed control at 25 ppm under setting [13] lay within 76 to 100%. Under setting [14], the pest or weed control at 100 ppm is 76 to 100%.

As to `Nc1nc(OCc2ccc(I)cc2)ncc1F` [Compound 725], the pest or weed control at 25 ppm by setting is: under setting [5], 76 to 100%; under setting [7], 76 to 100%. The pest or weed control at 100 ppm under setting [6] is 76 to 100% and the pest or weed control at 100 ppm under setting [8] is 76 to 100%.

Consider `C/C(=N\c1nc(OCc2ccc(F)cc2)ncc1F)N(C)C` [Compound 727], for which the pest or weed control at 25 ppm reads like this: under setting [5], 76 to 100%; under setting [7], 76 to 100%. The pest or weed control at 100 ppm under setting [6] lay within 76 to 100% and the pest or weed control at 100 ppm under setting [8] was in the range of 76 to 100%.

On to `Cc1cnc(CNc2nc(OCc3cccs3)ncc2F)cn1` [Compound 822], for which, where the note is “24 h, % disease control rating, one day protectant, 50 ppm”, the pest or weed control at 50 ppm lay in the range of 26 to 50%. Where the note is “24 h, % disease control rating, one day protectant, 200 ppm”, the pest or weed control at 200 ppm was 76 to 100%.

For `ONc1nc(OCc2ccc(F)cc2)ncc1F` [Compound 138], the pest or weed control at 25 ppm is, setting by setting: (24 h, one day protectant (1DP), 25 ppm, percent disease control rating, read-out: SETTTR 1DP 25 ppm) 76 to 100%; under setting [13], 76 to 100%. The pest or weed control at 100 ppm is, setting by setting: (24 h, one day protectant (1DP), percent disease control rating, read-out: SEPTTR 1DP 100 ppm) 76 to 100%; under setting [14], 76 to 100%.

For `COc1ncc(F)c(N(NC(=O)c2ccc(Cl)cc2)C(=O)c2ccc(Cl)cc2)n1` [Compound 1128], the pest or weed control at 25 ppm under setting [1] lay within 0 to 25%, the pest or weed control at 25 ppm under setting [2] fell in the range of 0 to 25% and the pest or weed control at 25 ppm under setting [3] fell in the range of 0 to 25%. Further, the pest or weed control at 100 ppm under setting [4] fell in the range of 0 to 25%.

With `Nc1nc(OCc2ccc(Cl)nc2)ncc1F` [Compound 644], the pest or weed control at 25 ppm by setting is: under setting [5], 76 to 100%; under setting [7], 76 to 100%. Also, the pest or weed control at 100 ppm was 76 to 100% under setting [6] and 76 to 100% under setting [8].

Regarding `COc1ccccc1NNc1nc(OCc2ccc(C)cc2)ncc1F` [Compound 996], the pest or weed control at 25 ppm lay in the range of 26 to 50% under setting [1], 51 to 75% under setting [2] and 26 to 50% under setting [3]. Besides, the pest or weed control at 100 ppm under setting [4] lay within 51 to 75%.
